Consider 9 compounds from publication PMC6920962, “Unravelling the Skin Secretion Peptides of the Gliding Leaf Frog, Agalychnis spurrelli (Hylidae)” (Biomolecules, 2019).

For data set [1], the system named is Escherichia coli ATCC 25922. Details: method as in 6 sources, ref Cuesta et al., 2019 (41) ||| ref Charpantier, et al., 1998 (39) ||| ref Raja et al., 2013 (40) ||| ref Reimer et al., 1981 (42) ||| ref 20, 22 = [20]; PMID 17561225; doi:10.1016/j.toxicon.2007.04.017; 20. Conlon J.M. Woodhams D.C. Raza H. Coquet L. Leprince J. Jouenne T. Vaudry H. Rollins-Smith L.A. Peptides with Differential Cytolytic Activity from Skin Secretions of the Lemur Leaf Frog Hylomantis || [22]; PMID 23415652; doi:10.1016/j.biochi.2013.02.005; 22. Xi X. Li R. Jiang Y. Lin Y. Wu Y. Zhou M. Xu J. Wang L. Chen T. Shaw C. Medusins: A New Class of Antimicrobial Peptides from the Skin Secretions of Phyllomedusine Frogs Biochimie 2013 95 1288 1296 ||| ... The conditions noted are these: cited from earlier work.

For data set [2], the system named is Staphylococcus aureus ATCC 25923. Details: method as in 4 sources, ref Cuesta et al., 2019 (41) ||| ref Charpantier, et al., 1998 (39) ||| ref Raja et al., 2013 (40) ||| ref Reimer et al., 1981 (42). Conditions: cited from earlier work.
Data set [3] deals with Candida albicans. Details: method as in Cuesta et al., 2019 (41). Conditions: broth microdilution; ref Cuesta et al., 2019 (41); cited from earlier work. On the procedure: In this work, skin secretion from this amphibian was analysed by molecular cloning and tandem mass spectrometry.
Data set [4] relates to Klebsiella pneumonia clinical isolate. Here is the method: (§1) For the in vitro evaluation of antimicrobial potentials of new biochemical structures identified herein, five synthetic peptides were purchased from a commercial supplier (Biomatik). Approximately 100 mg of each peptide was synthetized by Fmoc technology. […] The lyophilized peptides were kept at −20 °C and diluted in dimethyl sulfoxide (DMSO) before the antimicrobial assays, which were performed according to broth microdilution methodology detailed by Proaño et al.. Minimal inhibitory concentration of the synthetic peptides was determined against the following Gram-positive bacteria: Staphylococcus aureus ATCC 25923 and S. aureus oxacillin resistant strain; Gram-negative bacteria: Escherichia coli ATCC 25922 and Klebsiella pneumonia clinical isolate; and the opportunistic pathogenic yeast Candida albicans. Briefly, peptides were dissolved in DMSO at the following concentrations: 512, 256, 128, 64, 32, 16, 8, 4, 2, 1 […] mg/L. Each bacteria/yeast was cultured until reach log phase and then it was diluted to obtain 1 × 10^6 CFU/mL for bacteria and 1 × 10^5 CFU/mL for the yeast. Assays were prepared in 96 well sterile plates where 198 µL of each microorganism was challenged with 2 μL of the diluted peptides at the serial dilutions mentioned above. […] Another control included 200 μL of Muller Hinton broth without microorganisms to be used as blank with no growth. Seven replicates per peptide concentration was employed and experiments were performed in triplicates. […] MIC was determined as the minimal concentration of peptide required to inhibit the growth of >95% of microbial growth.

The subject of another data set is P. aeruginosa. The conditions noted are these: cited from earlier work.
The conditions of data set [5]: cited from earlier work.
Data set [6] deals with Candida albicans. Conditions: 18 h. On the procedure: as §1
In data set [7] the test system is Escherichia coli ATCC 25922. Conditions: ATCC 25922, 18 h. Here is the method:
as §1

Data set [8] relates to Staphylococcus aureus ATCC 25923. The conditions noted are these: ATCC 25923, 18 h. Here is the method: as §1
The subject of a further data set is red blood cells. The class given is cell-based. Here is the method: Aiming to determine the toxicity of frog peptides to red blood cells, in vitro assays were performed with different concentrations of each peptide. The diluted peptides (employing the same concentrations than for the antimicrobial assay described above) were incubated with a suspension of red blood cells (2%) (7.7 × 10^6 ± 0.3 × 10^6 cells/mL) at a ratio of 1:1 (v/v), in a total volume of 400 µL for 2 h at 37 °C. After the incubation period, the cells were centrifuged at 3000 rpm for 5 min and transferred to a 96 well plates. The haemolytic activity was monitored at 550 nm and was performed in triplicate. PBS and 2% (v/v) Triton X-100 were used as negative and positive controls, respectively.

In data set [9] the test system is S. aureus Oxacillin Resistant (ORSA Strain 20). On the procedure: as §1
Where [10] appears, read: ref Reimer et al., 1981 (42), listed as ampicillin.
[11] abbreviates: broth microdilution, ref Cuesta et al., 2019 (41).
[12] abbreviates: ref Charpantier, et al., 1998 (39).
[13] abbreviates: broth microdilution, 1 × 10^6 CFU/mL, 37 °C 18 h, OD 600 nm, MIC = >95% growth inhibition, seven replicates, triplicate experiments.
The mark [14] stands for this setting: broth microdilution, ref Cuesta et al., 2019 (41), listed as dermaseptin-2.

≈ marks a conversion by molar mass, not a printed value. Where “and” joins values, the source holds several entries; their conditions need not be identical. Identical values can stand only once. Like-named read-outs stand apart in the source and are kept apart here. Marks after values point to notes of the source that are not given here. Ends that are not written are not given here.

In the case of `CC1(C)S[C@@H]2[C@H](NC(=O)[C@H](N)c3ccccc3)C(=O)N2[C@H]1C(=O)O` [Ampicillin], the “MIC E. coli ATCC 25922” value is 6.0 **** μM in data set [1] (ref Reimer et al., 1981 (42)) and 6 µM (≈ 2.1 µg/mL) in data set [1] (setting [10]). The “MIC S. aureus ATCC 25923” value was 0.1 **** μM in [2] (ref Reimer et al., 1981 (42)) and 0.1 µM (≈ 0.0349 µg/mL) in data set [2] (setting [10]).
“SLRSSIKDMAAAAGRAALNAVNGIVNP-NH2 [Dermaseptin-SP5, novel dermaseptin of A. spurrelli, synthetic amidated peptide]”: in data set [1] (setting [11]), the “MIC E. coli ATCC 25922” value is 96.06 μM and 256 mg/L. The “MIC S. aureus ATCC 25923” value in data set [2] (setting [11]) is > 192.12 μM and > 512 mg/L. In addition, in the data set on Candida albicans [3], the “MIC C. albicans” value is 384.24 μM and 1024 mg/L.
On to “SLWSSIKDMAAAAGRAALNAVNGILNP-NH2 [Dermaseptin-SP4]”, for which the “MIC K. pneumoniae Clinical Isolate” value in [4] (18 h) is 189.00 µM.
In the case of “ALWKDILKNVGKAAGKAVLNTVTDMVNQ-NH2 [Dermaseptin-B4]”, in data set [1] (setting [12]), the “MIC E. coli ATCC 25922” value was 5.00 ** μM. The “MIC S. aureus ATCC 25923” value is 3.00 ** μM in data set [2] (setting [12]) and 3 µM in data set [2] (ref Charpantier, et al., 1998 (39), listed as DRS-B4). Also, the “MIC P. aeruginosa” value in the data set on P. aeruginosa was 4.6 to 11.6 µM. Besides, the “Concentration at which cytotoxicity was exhibited” value in data set [5] was 12 µM.
As to “SLWSSIKDMAAAAGRAALNAVNGIVNP-NH2 [Dermaseptin-SP3]”, the “MIC K. pneumoniae Clinical Isolate” value in data set [4] (18 h) is greater than 189.98 µM.
Regarding “FLSLIPHVISAIPHVVNALSNL-NH2 [Phylloseptin-SP1]”, the “MIC C. albicans” value against Candida albicans [6] was greater than 217.69 µM. In addition, in [7], the “MIC E. coli ATCC 25922” value was greater than 217.69 µM. The “MIC K. pneumoniae Clinical Isolate” value in [4] (18 h) was greater than 189.00 µM. Moreover, the “MIC S. aureus ATCC 25923” value in [8] was greater than 217.69 µM. Further, the “Toxicity to red blood cells compared with the dermaseptins” value with red blood cells is “greater toxicity to red blood cells than did the dermaseptins”.
As to “ASWKVFLKNIGKAAGKAVLNSVTDMVNQ-NH2 [Dermaseptin-SP2]”, the results for the “MIC K. pneumoniae Clinical Isolate” value in data set [4] (18 h) and in [4] (setting [13]) were 10.71 µM and 32 µg/mL, respectively. Further, the “MIC S. aureus Oxacillin Resistant (ORSA Strain 20)” value in data set [9] (Oxacillin Resistant (ORSA Strain 20, 18 h)) came out at 2.68 µM; in data set [9] (setting [13]) it was 8 µg/mL; in [9] (broth microdilution, 1 × 10^6 CFU/mL, 37 °C 18 h, OD 600 nm, MIC = >95% growth inhibition, seven replicates, triplicate experiments, listed as dermaseptin-2) it was 2.68 µM. For the same compound, the “MIC E. coli ATCC 25922” value in data set [1] (setting [11]) and in data set [1] (setting [14]) was 2.68 µM in each case. Besides, the “MIC S. aureus ATCC 25923” value in data set [2] (setting [11]) and in [2] (setting [14]) was 2.68 µM throughout. For the same compound, in the data set with Candida albicans [3], the “MIC C. albicans” value is 10.71 µM.
In the case of “ALWKTMLKKLGTMALHAGKAALGAAADTISQGTQ [Dermaseptin-S1, dermaseptin of Phyllomedusa sauvagii]”, the “MIC E. coli ATCC 25922” value in data set [1] (setting [12]) was 46 μM and 46.00 ** μM. Also, the “MIC S. aureus ATCC 25923” value in data set [2] (setting [12]) is 60.00 ** μM.
Turning to “FLSLIPHIVSGVASIAKHFG [Phyloseptin-S1, phylloseptin of P. sauvagii]”, the “MIC E. coli ATCC 25922” value in [1] (ref Raja et al., 2013 (40)) is reported as 70.00 *** μM. Also, the “MIC S. aureus ATCC 25923” value in data set [2] (ref Raja et al., 2013 (40)) is recorded as 6.25 *** μM.
